The molecules below were run on Drosophilae containing and expressing human Abeta42 gene (assay: Pavlov's olfactory-related instantaneous memory test in Drosophila). Conditions: increasing dosage, compared with memantine hydrochloride; FIG. 3.
Type: in vivo
Description: Drosophila has a classical learning and memory paradigm, known as Pavlov's olfactory-related instantaneous memory. During the training program, a group of about 100 drosophilae were exposed sequentially to two odors, i.e., 3-octanol and 4-methylcyclohexanol, each odor for 60 seconds, and to fresh air for 45 seconds therebetween. During exposure to the first odor, the drosophilae were electrocuted on their feet (1.5-second pulses at 3.5-second intervals, 60V), while no electrocution was exerted during exposure to the second odor. In order to detect “instantaneous memory” (also known as “learning”), drosophilae were transferred to the selection area in the T maze immediately after training and forced to choose between the two odors. The drosophilae in each T-maze arm were then captured, anesthetized, and counted. The behavior index was calculated from the distribution of drosophilae in the T maze. […] In each experiment, the age of the control group was matched with that of the experimental group.
Pharmacodynamic evaluation of the candidate compounds: Drosophilae containing and expressing human Abeta42 gene were selected as a diseased control, and drosophilae containing but not expressing human Abeta42 gene were selected as a healthy control. The day after emergence of the drosophilae, male drosophilae were selected and fed. […] The above memory test was performed on the drosophilae on the tenth day.

SMILES	dose-effect relationship to improve memory of drosophilae with Alzheimer's disease
O=C1C=C(OCc2ccccc2F)[C@H](Cc2ccccc2)N1 [Compound 51121]	eventually reaches or exceeds the level of the activity of the positive compound memantine hydrochloride
O=C1C=C(OCc2cccs2)[C@H](Cc2ccccc2)N1 [Compound 51151]	eventually reaches or exceeds the level of the activity of the positive compound memantine hydrochloride
O=C1C=C(OCc2cccc3ccccc23)[C@H](Cc2ccccc2)N1 [Compound 51311]	eventually reaches or exceeds the level of the activity of the positive compound memantine hydrochloride
CC(=O)Oc1ccc(COC2=CC(=O)N[C@H]2Cc2ccccc2)cc1 [Compound 51351]	eventually reaches or exceeds the level of the activity of the positive compound memantine hydrochloride
